{
  "source": "patent US20190269656A1",
  "about": "“Combination Therapies Using Indazolylbenzamide Derivatives for the Treatment of Cancer” (ESANEX, INC., priority 2016, published 2019)",
  "key": {"[1]": {"experiment": "Tolerability: treatment-emergent adverse events and MTD, SNX-5422 dose escalation plus everolimus in NET patients", "format": "in vivo", "conditions": "in combination with everolimus, once every other day for 21 days of 28-day cycle", "description": "(§1) Starting on Day 1, SNX-5422 was dosed once every other day for 21 days (11 doses), followed by a 7-day drug free period. SNX-5422 was dosed each morning starting at 50 mg/m^2 with standard 3+3 dose escalation. The actual dose administered was based on body surface area, calculated using body weight measured at the start of each cycle and height at Screening. The calculated dose was then rounded to the nearest mg on dosing chart. Everolimus was dosed at 10 mg once daily in the evening (at least 8 hours after SNX-5422 dosing) for 28 days, with dose de-escalation allowed based on EVR toxicity. Eligible patients were to have unresectable gastro-entero-pancreatic or pulmonary NETs and less than 5 prior lines of anti-cancer treatment.\nResults: Seventeen patients (10 male, 7 female; median age 59 years) with NETs were enrolled in the study. The maximum tolerated dose (MTD) of SNX-5422 was determined to be 75 mg/m^2 in combination with everolimus.\nTolerability: Most frequent (i.e., occurring in 6 or more patients overall) Treatment-Emergent Adverse Events (TEAEs) are provided in Table 1. All patients reported at least one TEAE. Diarrhea was the most commonly reported TEAE, occurring in 80% of patients overall. In 13 patients (65%), the event was considered related to the combination of SNX-5422 and everolimus. […]"}, "[2]": {"tested_on": "unresectable gastro-entero-pancreatic or pulmonary NETs", "experiment": "Tumor response by RECIST 1.1 in NET patients treated with SNX-5422 plus everolimus", "format": "in vivo, human", "description": "as §1\nTumor response was assessed at the end of every 2 cycles±2 weeks, using RECIST 1.1 criteria (Eisenhauer et al. European Journal of Cancer 45:228-247 (2009)). Partial Response (PR) was defined as at least a 30% decrease in the sum of diameters of target lesions, taking as reference the baseline sum diameters. Progressive Disease (PD) was defined as at least a 20% increase in the sum of diameters of target lesions, taking as reference the smallest sum on study. Stable disease is noted where there is no sufficient shrinkage to qualify for PR or no sufficient increase to qualify for PD."}, "[3]": {"tested_on": "advanced, non-functional neuroendocrine tumours of the lung or gastrointestinal tract", "conditions": "everolimus only, without SNX-5422; patients with NETs; RADIANT-4; cited from earlier work"}, "[4]": {"conditions": "of 17 NET patients evaluable, SNX-5422 plus everolimus, RECIST 1.1"}, "[5]": {"conditions": "patients previously treated with 2 or less prior lines of treatment (FIG. 2), SNX-5422 plus everolimus"}, "[6]": {"conditions": "six patients, GI tract/lung/unknown carcinoid, ≤2 prior lines and Ki67<20% (FIG. 4), SNX-5422 plus everolimus"}},
  "data": [
    {"smiles": "CC1(C)CC(=O)c2c(C(F)(F)F)nn(-c3ccc(C(N)=O)c(N[C@H]4CC[C@H](OC(=O)CN)CC4)c3)c2C1", "note": "[SNX-5422, trans-4-({2-(aminocarbonyl)-5-[6,6-dimethyl-4-oxo-3-(trifluoromethyl)-4,5,6,7-tetrahydro-1H-indazol-1-yl]phenyl}amino)cyclohexyl glycinate]", "values": [
      {"measurement": "maximum tolerated dose (MTD)", "setting": "[1]", "value": 75, "unit": "mg/m^2"},
      {"measurement": "subjects receiving ongoing treatment for over 2 years (i.e., ≥30 cycles)", "setting": "[2]; combination of SNX-5422 plus everolimus, NET patients", "value": 2, "unit": "subjects"},
      {"measurement": "partial response as best response, % of patients", "setting": "[2]; [4]", "value": 18, "unit": "%"},
      {"measurement": "partial response as best response, number of patients", "setting": "[2]; [4]", "value": 3, "unit": "patients"},
      {"measurement": "progressive disease as best response, % of patients", "setting": "[2]; [4]", "value": 18, "unit": "%"},
      {"measurement": "progressive disease as best response, number of patients", "setting": "[2]; [4]", "value": 3, "unit": "patients"},
      {"measurement": "stable disease as best response, % of patients", "setting": "[2]; [4]", "value": 64, "unit": "%"},
      {"measurement": "stable disease as best response, number of patients", "setting": "[2]; [4]", "value": 11, "unit": "patients"},
      {"measurement": "tumor reduction", "setting": "[2]; one patient with GI NET, 30 treatment cycles, SNX-5422 plus everolimus", "value": 31, "unit": "%"},
      {"measurement": "tumor reduction", "setting": "[2]; one patient with lung carcinoid, 10 treatment cycles, SNX-5422 plus everolimus", "value": 51, "unit": "%"},
      {"measurement": "tumor reduction", "setting": "[2]; one patient with unknown carcinoid, 35 treatment cycles, SNX-5422 plus everolimus", "value": 36, "unit": "%"},
      {"measurement": "reduction in target lesion size", "setting": "[2]; one patient, SNX-5422 plus everolimus", "value": 51, "unit": "%"},
      {"measurement": "tumor measurement, second diameter (CT scan left iliac adenopathy)", "setting": "[2]; patient with pulmonary carcinoid NET, after 4 cycles of treatment, baseline 4.25 cm, SNX-5422 plus everolimus", "value": 2.42, "unit": "cm"},
      {"measurement": "tumor measurement, first diameter (CT scan left iliac adenopathy)", "setting": "[2]; patient with pulmonary carcinoid NET, after 4 cycles of treatment, baseline 6.51 cm, SNX-5422 plus everolimus", "value": 3.75, "unit": "cm"},
      {"measurement": "partial response as best response, number of patients", "setting": "[2]; [5]", "value": 3, "unit": "patients"},
      {"measurement": "progressive disease as best response, number of patients", "setting": "[2]; [5]", "value": 1, "unit": "patients"},
      {"measurement": "stable disease as best response, number of patients", "setting": "[2]; [5]", "value": 7, "unit": "patients"},
      {"measurement": "overall response rate", "setting": "[2]; [6]", "value": 50, "unit": "%"},
      {"measurement": "partial response, number of patients", "setting": "[2]; [6]", "value": "three"}
    ]},
    {"smiles": "CO[C@H]1C[C@@H]2CC[C@@H](C)[C@@](O)(O2)C(=O)C(=O)N2CCCC[C@H]2C(=O)O[C@H]([C@H](C)C[C@@H]2CC[C@@H](OCCO)[C@H](OC)C2)CC(=O)[C@H](C)/C=C(\\C)[C@@H](O)[C@@H](OC)C(=O)[C@H](C)C[C@H](C)/C=C/C=C/C=C/1C", "note": "[everolimus, (1R,9S,12S,15R,16E,18R,19R,21R,23S,24E,26E,28E,30S,32S,35R)-1,18-dihydroxy-12-{(1R)-2-[(1 S,3R,4R)-4-(2-hydroxyethoxy)-3-methoxycyclohexyl]-1-methylethyl}-19,30-dimethoxy-15,17,21,23,29,35-hexamethyl-11,36-dioxa-4-aza-tricyclo[30.3.1.04,9]hexatriaconta-16,24,26,28-tetraene-2,3,10,14,20-pentaone]", "values": [
      {"measurement": "partial response rate, % of patients", "setting": "[3]", "value": "about 2%"}
    ]}
  ]
}
